Columns and labels:
[1] = tested on: Bacteroidaceae (Bacteroides); test: In vitro colonic fermentation, 16S rRNA bacterial population analysis; type: cell-based; conditions: 24 h fermented samples versus Time 0 samples
[2] = tested on: Lachnospiraceae (Coprococcus); test: as above; type: cell-based; conditions: 24 h fermented samples versus Time 0 samples
Ruminococcaceae = test: as above; type: cell-based; conditions: 24 h fermented samples versus Time 0 samples
[3] = tested on: Lachnospiraceae (Dorea formicigenerans); test: as above; type: cell-based; conditions: 24 h fermented samples versus Time 0 samples
[4] = tested on: Veillonellaceae (Dialister); test: as above; type: cell-based; conditions: 24 h fermented samples versus Time 0 samples
[5] = tested on: Clostridiaceae (Clostridium perfringens); type: cell-based; conditions: 24 h fermented samples versus Time 0 samples
[6] = tested on: Lactobacillaceae (Lactobacillus reuteri); test: In vitro colonic fermentation, 16S rRNA bacterial population analysis; type: cell-based; conditions: 24 h fermented samples versus Time 0 samples
[7] = tested on: Lachnospiraceae (Blautia); test: as above; type: cell-based; conditions: 24 h fermented samples versus Time 0 samples
[8] = tested on: Veillonellaceae (Veillonella dispar); test: as above; type: cell-based; conditions: 24 h fermented samples versus Time 0 samples
[9] = tested on: Enterobacteriaceae (Trabulsiella); test: as above; type: cell-based; conditions: 24 h fermented samples versus Time 0 samples
[10] = tested on: faecal slurries (gut microbiota); test: In vitro colonic fermentation, SCFA analysis by gas chromatography; conditions: 24 hrs fermentation, result in words (FIG. 2, FIG. 3)
[11] = tested on: Bacillaceae (Bacillus coagulans); test: In vitro colonic fermentation, 16S rRNA bacterial population analysis; type: cell-based; conditions: 24 h fermented samples versus Time 0 samples
[12] = tested on: Ruminococcaceae (Oscillospira); test: as above; type: cell-based; conditions: 24 h fermented samples versus Time 0 samples
[13] = tested on: Lachnospiraceae (Roseburia faecis); test: as above; type: cell-based; conditions: 24 h fermented samples versus Time 0 samples
[14] = tested on: Coriobacteriaceae (Collinsella aerofaciens); test: as above; type: cell-based; conditions: 24 h fermented samples versus Time 0 samples
[15] = tested on: Ruminococcaceae (Ruminococcus); test: as above; type: cell-based; conditions: 24 h fermented samples versus Time 0 samples
Erysipelotrichaceae = test: as above; type: cell-based; conditions: 24 h fermented samples versus Time 0 samples
[16] = tested on: Porphyromonadaceae (Parabacteroides distasonis); test: as above; type: cell-based; conditions: 24 h fermented samples versus Time 0 samples
[17] = tested on: faecal slurries (gut microbiota); test: In vitro colonic batch fermentation, pH value; conditions: batch fermentation with faecal slurry, 37° C., starting pH adjusted
[18] = pH of formulations in fermentation media before pH adjustment; type: physicochemical; conditions: 150 mg dried formulation in 10 mL fermentation media, before standardizing the starting pH at 6.8
[19] = tested on: Paraprevotellaceae (Paraprevotella); test: In vitro colonic fermentation, 16S rRNA bacterial population analysis; type: cell-based; conditions: 24 h fermented samples versus Time 0 samples
[20] = tested on: Lachnospiraceae (Lachnospira); test: as above; type: cell-based; conditions: 24 h fermented samples versus Time 0 samples
[21] = tested on: Ruminococcaceae (Faecalibacterium prausnitzii); test: as above; type: cell-based; conditions: 24 h fermented samples versus Time 0 samples

For O=C(O[C@@H]1Cc2c(O)cc(O)cc2O[C@@H]1c1cc(O)c(O)c(O)c1)c1cc(O)c(O)c(O)c1 [EGCG, Epigallocatechin gallate], the “Log2 fold change of percentage abundance, Bacteroidaceae (Bacteroides)” value [1] was −0.13 Log2 fold change, the “Log2 fold change of percentage abundance, Lachnospiraceae (Coprococcus)” value [2] was −0.22 Log2 fold change and the “Log2 fold change of percentage abundance, Ruminococcaceae” value (Ruminococcaceae) was −0.57 Log2 fold change. For the same molecule, the “Log2 fold change of percentage abundance, Lachnospiraceae (Dorea formicigenerans)” value [3] was −1.47 Log2 fold change, the “Log2 fold change of percentage abundance, Veillonellaceae (Dialister)” value [4] was −0.32 Log2 fold change and the “Log2 fold change of percentage abundance, Clostridiaceae (Clostridium perfringens)” value [5] was −0.79 Log2 fold change. The “Log2 fold change of percentage abundance, Lactobacillaceae (Lactobacillus reuteri)” value [6] was −0.37 Log2 fold change, the “Log2 fold change of percentage abundance, Lachnospiraceae (Blautia)” value [7] was −1.39 Log2 fold change and the “Log2 fold change of percentage abundance, Veillonellaceae (Veillonella dispar)” value [8] was −0.58 Log2 fold change. The “Log2 fold change of percentage abundance, Enterobacteriaceae (Trabulsiella)” value [9] was 0.58 Log2 fold change, the “total and individual SCFA production during fermentation” value [10] was “significantly inhibited” and the “Log2 fold change of percentage abundance, Bacillaceae (Bacillus coagulans)” value [11] was −1.94 Log2 fold change. For the same molecule, the “Log2 fold change of percentage abundance, Ruminococcaceae (Oscillospira)” value [12] was −0.31 Log2 fold change, the “Log2 fold change of percentage abundance, Lachnospiraceae (Roseburia faecis)” value [13] was −0.11 Log2 fold change and the “Log2 fold change of percentage abundance, Coriobacteriaceae (Collinsella aerofaciens)” value [14] was −0.81 Log2 fold change. The “Log2 fold change of percentage abundance, Ruminococcaceae (Ruminococcus)” value [15] was −1.35 Log2 fold change, the “Log2 fold change of percentage abundance, Erysipelotrichaceae” value (Erysipelotrichaceae) was −1.30 Log2 fold change and the “Log2 fold change of percentage abundance, Porphyromonadaceae (Parabacteroides distasonis)” value [16] was 0.27 Log2 fold change. For the same molecule, the “pH at 24 hrs” value [17] was 6.46 ± 0.05, the pH [18] was 7.16 and the “Log2 fold change of percentage abundance, Paraprevotellaceae (Paraprevotella)” value [19] was 0.46 Log2 fold change. The “Log2 fold change of percentage abundance, Lachnospiraceae (Lachnospira)” value [20] was −0.28 Log2 fold change and the “Log2 fold change of percentage abundance, Ruminococcaceae (Faecalibacterium prausnitzii)” value [21] was −0.81 Log2 fold change.
